Source: patent US11471502B2, “Neuroprotective peptide” (UNIVERSITY COLLEGE CARDIFF C[…], priority 2017, dated 2022)

Legend:
Lister Hooded rats = experiment: Contextual Fear Conditioning after infusion into dorsal hippocampus; format: in vivo, rat
Protocol: (*p<0.05, **p<0.01, FLSD test).
The subjects were adult male Lister hooded rats weighing 280-350 g. They were housed in pairs, in holding rooms maintained at 21° C. on a reversed-light cycle (12 h light/dark; lights on at 10:00 P.M.). All experiments were conducted in the dark period of the rats. Food and water were freely available throughout the experiment. Steel double guide cannulae aimed at the dorsal hippocampus (AP−3.50, relative to bregma) were surgical implanted under anaesthesia at least one week prior to behavioural training and microinfusions. Bilateral infusions with either 2 mg/ml CPP-SCR or CPP-RB5, 20 min prior to conditioning (pH 7.0, […]) via the chronically indwelling cannula were carried out in awake rats using a syringe pump, connected to injectors (28 gauge, projecting 1 mm beyond the guide cannulae) by polyethylene tubing.
Conditioning was performed in one of two distinct contexts. These contexts were designed to differ in a number of distinctive characteristics including size, spatial location, odour and lighting.
Rat protocol: during the 3 min conditioning training trial, rats received a single scrambled footshock (0.5 mA for 2 s) 2 min after being placed into one of the conditioning contexts (CtxA). All rats were returned to the home cages after conditioning. Retrieval tests 3 hr (post-retrieval short-term memory, STM), or 2 days (long-term memory, LTM) after recall again consisted of exposing the rat to the conditioning context for 2 min.
For all protocols, freezing behavior served as a measure of conditioned fear to the context during the conditioning and retrieval tests of the behavioural procedures. This was video-recorded and quantified by an observer blind to the experimental group. One unit of freezing was defined as a continuous absence of movement other than that required for respiration in 1 s sampled every 10 s.

ERK1/2 = experiment: Ex vivo acute striatal slices, glutamate stimulation, Western blot for phospho ERK; format: cell-based, mouse; details: 50 μM peptide; for ERK2 activation (phosphorylation of ERK2) / pERK1 (phospho-ERK1) level: glutamate 100 μM 10 min, vs scramble
Protocol: a) RB5 peptide selectively promoted activation of ERK2. Acute striatal slices either pre-treated with Scramble (SCR) or RB5 peptide (50 μM) and then stimulated 10 minutes with glutamate (GLU) (100 μM) or vehicle were analysed in Western blot (left panel) and probed with anti phospho ERK antibodies (p44^ERK1 and p42^ERK2) and anti ERK1/2 antibody. GAPDH was used as loading control. […] No changes were detected in the total ERK1 and ERK2 levels. GAPDH was used as loading control. […] Mice injected with a single dose of CPP-SCR or CPP-RB5 peptides (20 mg/kg, i.p.) were rapidly perfused 1 h later and brains were dissected and further analysed for IHC and immunofluorescence. Representative photomicrographs of pERK1/2, pMSK, pAch3, pELK1 and c-Fos expression in the striatum. […] Two-way ANOVA Bonferroni post hoc comparison: one black star, p<0.05, two black stars, p<0.01, one white star, p<0.001. p) Dose response curve of RB5 peptide for ERK activation. 200 μm thick striatal slices were freshly prepared from 2-month old mice and transferred into a perfusion chamber for 1 h at 32° C. Slices were pre-treated with different doses of RB5 or scrambled control. After 1 h, slices for each dose was fixed in PFA 4% for 15 min. 18 μm cryo-sections were processed for immunohistochemistry with anti-phospho p44/p42 MAP kinase. Neuronal quantification was performed with ImageJ software by counting the number of phospho-ERK positive cells in each slice. The level of activation is expressed on the Y-axis as arbitrary units (AU). Doses are reported in a logarithmic scale (Log 10) on the X-axis. The EC50 was calculated using GraphPad Prism software.
Adult mice were anesthetized and decapitated. The brains were rapidly removed from the skull and put on a cool glass plate filled with ice-cold sucrose-based dissecting solution (87 mM NaCl, 2.5 mM KCl, 7 mM MgCl2, 1 mM NaH2PO4, 75 mM sucrose, 25 mM NaHCO3, 10 mM D-glucose, 0.5 mM CaCl2), 2 mM kynurenic acid) and oxygenated with 95% O2 and 5% CO2 and subsequently mounted on the vibratome stage (Vibratome, VT1000S-Leica Microsystems). 200 μm-thick slices were cut and transferred into the brain slice chamber (Brain slice chamber-BSC1—Scientific System design Inc., Mississauga, ON, Canada) and allowed to recover for 1 h at 32° C., with a constant perfusion of carboxygenated artificial cerebrospinal fluid (ACSF) in the presence of the Scramble or RB5 peptide (50 μM). Brain slice stimulation was performed with 100 μM glutamate in the chamber for 10 min. After rapid fixation in 4% PFA for 15 min at room temperature, slices were rinsed and the cryoprotected overnight at 4° C. in sucrose solution. On the following day slices were further cut in thinner slices of 18 μm using cryostat (Leica CM1850) and collected onto SuperFrost Plus slides (Thermo Scientific).
Mice were sacrificed by decapitation and brain slices were freshly prepared according to the above ex-vivo system protocol and incubated in a perfusing chamber with the peptides. After stimulation with glutamate or saline, slices were then homogenised and used for protein determination using a DC Protein Assay kit (Bio-rad). Equal amounts of protein (5 or 10 μg, depending on the target protein) for each sample were loaded onto 12% polyacrylamide gels. Proteins were separated onto SDS/PAGE and transferred to nitrocellulose membranes. After incubation for 1 hr in blocking solution (TBS1λ, 0.1% Tween), membranes were incubated overnight with anti ERK2 (K-23):sc-153 (1:1000 Santa Cruz Biotechnology, Dallas, Tex.), phospho-p42-44 Map Kinase (Thr202/[…]) (1:1000 Cell Signalling Technology, Danvers, Mass.) and anti-GAPDH (FL-335): sc-25778 (1:1000 Santa Cruz Biotechnology, Dallas, Tex.). The immunoblots were analysed with ImageJ software to measure the optical density of the bands. The levels of each protein were normalized on the GAPDH loading control.

[1] = 2 mg/ml infusion into dorsal hippocampus prior to CFC
[2] = 2 mg/ml bilateral dorsal CA1 infusion 20 min prior to conditioning

Molecule	acquisition of contextual fear memory (Lister Hooded rats; [1])	long-term fear memory (Lister Hooded rats; [1])	total ERK1 and ERK2 levels (ERK1/2)	ERK2 activation (phosphorylation of ERK2) (ERK1/2)	pERK1 (phospho-ERK1) level (ERK1/2)	STM and LTM (freezing at 3 hr and 2 days after training) (Lister Hooded rats; [2])	post footshock (postUS) freezing behaviour during fear conditioning (Lister Hooded rats; [2])
GRKKRRQRRRPPQGGGGGEPRRTEGVGPGVPGEVEMVKGQPFDV (listed as Homo sapiens) [CPP-RB5]	enhanced	stronger long-term fear memory	no changes	selectively enhanced	equally increased	–	–
CSCC[C@H](NC(=O)[C@H](CCC(=O)O)NC(=O)[C@@H](NC(=O)[C@H](CCC(=O)O)NC(=O)CNC(=O)[C@@H]1CCCN1C(=O)[C@@H](NC(=O)CNC(=O)[C@@H]1CCCN1C(=O)CNC(=O)[C@@H](NC(=O)CNC(=O)[C@H](CCC(=O)O)NC(=O)[C@@H](NC(=O)[C@H](CCCNC(=N)N)NC(=O)[C@H](CCCNC(=N)N)NC(=O)[C@@H]1CCCN1C(=O)[C@H](CCC(=O)O)NC(=O)CNC(=O)CNC(=O)CNC(=O)CNC(=O)CNC(=O)[C@H](CCC(N)=O)NC(=O)[C@@H]1CCCN1C(=O)[C@@H]1CCCN1C(=O)[C@H](CCCNC(=N)N)NC(=O)[C@H](CCCNC(=N)N)NC(=O)[C@H](CCCNC(=N)N)NC(=O)[C@H](CCC(N)=O)NC(=O)[C@H](CCCNC(=N)N)NC(=O)[C@H](CCCNC(=N)N)NC(=O)[C@H](CCCCN)NC(=O)[C@H](CCCCN)NC(=O)[C@H](CCCNC(=N)N)NC(=O)CNC(C)=O)[C@@H](C)O)C(C)C)C(C)C)C(C)C)C(=O)N[C@H](C(=O)N[C@@H](CCCCN)C(=O)NCC(=O)N[C@@H](CCC(N)=O)C(=O)N1CCC[C@H]1C(=O)N[C@@H](Cc1ccccc1)C(=O)N[C@@H](CC(=O)O)C(=O)N[C@@H](C(=O)O)C(C)C)C(C)C [RB5]	–	–	No changes	significantly higher	equally increased	increase in both STM and LTM	increase
